Consider three molecules from BindingDB's records for doi:10.1016/j.bmcl.2012.05.087 (Actelion Pharmaceuticals, 2012).

One may read the IC50 as the midpoint of a concentration-inhibition curve.

Molecules are shown by their SMILES.

A short description of this experiment: Antagonist activity at human CRTh2 receptor in human whole blood assessed as inhibition of PGD2-induced eosinophil shape change after 10 mins by flow cytometric analysis in presence of 50% human plasma. On the technique in general: Flow cytometry measures light scatter and fluorescence of single cells or particles in a stream.

With `COc1ccc(C(C)=O)cc1CSc1nc2ccccc2n1CC(=O)O`, the IC50 is 0.016 µM.

As for `CCCCNC(=O)c1ccc(OC)c(CSc2nc3cc(F)ccc3n2CC(=O)O)c1`, the IC50 came to 0.041 µM.

On to `COc1ccc(C(=O)N2CCc3ccccc32)cc1CSc1nc2cc(F)ccc2n1CC(=O)O`, for which the IC50 was found to be 0.051 µM.
